Test results: PMC11744668, “2-Cyanopyrimidine-Containing Molecules for N-Terminal Selective Cyclization of Phage-Displayed Peptides” (ACS Chemical Biology, 2025)
“Also recorded” adds a separate entry of the source. Starred links: 1 amine or outer side, 2 acyl side, 3 side chain; linkers in the order of their positions; H or OH if unused. Positions of bridges follow the written chain, without caps; N, C: chain ends. Non-standard residues stand in square brackets, D forms with d. Residues, ends and D or L forms follow the SMILES beside them. No end group written: not given here. X1 = O=C([C@@H]1CSC(c2ncc(N[*:1])cn2)=N1)[*:2]; Abu = CC[C@H](N)C(=O)O

Key:
[1] = biological target: T1, ZNRF3 extracellular domain (ZNRF3-ECD) (Homo sapiens, UniProt Q9ULT6); assay: Biolayer interferometry (BLI) binding to immobilized biotinylated ZNRF3-ECD; details: for Kd: streptavidin biosensors
T1 construct: The ZNRF3 ECD was expressed and characterized exactly as previously described; SUMO (N, cleaved yes); made in house; host or cells: E. coli BL21, co-expressing BirA
T1 sequence (Q9ULT6 56-219 limits assumed): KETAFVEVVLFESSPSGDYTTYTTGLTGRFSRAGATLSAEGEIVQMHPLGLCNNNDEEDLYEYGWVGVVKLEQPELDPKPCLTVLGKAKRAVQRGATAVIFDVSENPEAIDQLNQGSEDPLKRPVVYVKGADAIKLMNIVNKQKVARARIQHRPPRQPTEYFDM
Method: The ZNRF3 ECD was expressed and characterized exactly as previously described.[38] Plasmid pET28a-SUMO-ZNRF3-Avi was cotransformed into E. coli (BL21) along with a plasmid expressing BirA. The cells were then inoculated into 2× YT containing 50 μg/mL kanamycin and 34 μg/mL chloramphenicol and grown at 37 °C until OD = 0.5. Expression was then induced by the addition of 1 mM IPTG and 50 μM biotin, and then the protein was expressed for 18 h at 16 °C. The cells were then pelleted (3750g, 15 min) and then resuspended in buffer A (50 mM Tris-HCl, 10% glycerol, 150 mM NaCl, and 25 mM imidazole, pH 7.5, 20 mL/liter of expression). The cells were then lysed by sonication (1 s on, 1 s off, 5 min, 60% A, repeated once), and the lysate was clarified by centrifugation (25,000g, 20 min). The supernatant was then incubated with a Ni-NTA column for 45 min at 4 °C. The column was then washed with 5 CV of buffer A before being eluted using 2 CV of buffer B (buffer A + 240 mM imidazole). The elution was then concentrated using an Amicon centrifugal filter before being desalted into buffer A on a HiPrep 26/10 column. The SUMO tag was then cleaved by the addition of 30 μg/mL SUMO protease and incubation for 48 h at 4 °C. The protein was then loaded onto a second Ni-NTA column for 45 min at 4 °C, and the flowthrough was collected and concentrated to 1 mL by centrifugation. Pure protein was then isolated using size exclusion chromatography (HiLoad 16/600, Superdex 75 pg) in buffer C (50 mM Tris-HCl, pH 7.5, 10% (v/v) glycerol, 150 mM NaCl, and 0.5 mM EDTA). Pure protein was stored in storage buffer (50 mM Tris-HCl, pH 7.5, 50% (v/v) glycerol, and 150 mM NaCl) at −80 °C before being used for assays.
Biolayer interferometry (BLI) experiments were performed using streptavidin-coated biosensors (Sartorius Bio) on an Octet R8 biolayer interferometer (Sartorius Bio). All experiments were performed in assay buffer (10 mM HEPES, 150 mM NaCl, and 0.01% Tween 20, pH 7.5). Biotinylated ZNRF3 (28 μg/mL in assay buffer) was loaded onto the sensor to 4 nm of loading over 10 min, and then the sensors were quenched for one min with a 1% BSA solution in assay buffer. Peptides were serially diluted in assay buffer containing 0.8% DMF, and the association and dissociation to ZNRF3 were measured over 3 and 5 min, respectively. Between each experiment, sensors were regenerated using 10 mM glycine, pH 1.5. Binding curves were double-referenced against a protein-only sensor and a parallel unloaded sensor to correct for any nonspecific binding to the sensors. All curves were fit in the Octet Kinetic Analysis program (Sartorius Bio) using a 1:1 protein/ligand binding model.

CA5C-sfGFP = assay: Cyclization of CA5C-sfGFP with linkers (LC-ESI-MS); details: 100 μM linker, 3 h, 22 °C (RT), PBS pH 7.4, 1 mM TCEP
Method: The designed organic linkers were tested for their ability to cyclize a CA5C peptide expressed as an N-terminal fusion to sfGFP (CA5C-sfGFP). Following reduction of the protein with 1 mM TCEP for 30 min, 100 μM compounds were reacted with the reduced CA5C-sfGFP for 3 h in PBS (pH 7.4). Following the reaction, the protein was analyzed via electrospray ionization mass spectrometry (ESI-MS) analysis to determine the desired adduct and any potential side reactions that occurred. […] This is likely due to the electron withdrawing effects of the nitrogen atoms adjacent to the nitrile in the 2-cyanopyrimidine derivatives. […] Following previously established Bayesian deconvolution of the mass spectra,[23] protein masses from each reaction (MW = 28,399 Da) corresponded well with that of the expected cyclic product (MW = 28,399 Da). […] This observed mass matches a TCEP-conjugated product resulting from a previously reported competing phospha-Michael addition of TCEP to the acrylamide moiety.[24] This product has a TCEP-functionalized linker that is nonreactive toward the internal cysteine (Figure 2A,B). Following these initial studies, we then further optimized the cyclization of CA5C-sfGFP using pCAmCP and mCAmCP by varying the reaction time, temperature, and concentration of linkers (Figure 2C).
Purified CA5C-sfGFP was diluted to 500 nM in PBS (pH 7.4) containing 1 mM TCEP and left to incubate for 30 min at 37 °C. Linker (100 μM final concentration) or equivalent amounts of DMSO were then added to the solution, and it reacted at varying times (3 or 16 h) and temperatures (22 or 37 °C). All initial tests for reactivity were performed at 22 °C for 3 h, while linkers pCAmCP and mCAmCP were optimized with the additional conditions. The reaction mixtures were then concentrated and exchanged to ammonium bicarbonate (50 mM, pH 8.0) using an Amicon centrifugal filter (MWCO: 10 kDa). Samples were analyzed using a QExactive Orbitrap LC–MS System (Thermo Fisher) and deconvoluted using UniDec software.[23]

[2] = biological target: T1, ZNRF3 extracellular domain (ZNRF3-ECD); assay: Phage selection against ZNRF3-ECD, NGS enrichment, pCAmCP-cyclized library; format: binding
From the text: In addition to simply ensuring the cyclization potential on phage, we also looked to investigate the selection differences using two different linkers to macrocyclize the same initial peptide library. ZNRF3 is a membrane protein that contains an intracellular E3 ligase domain and has previously shown potential in promoting degradation of oncogenic membrane proteins, such as PDL1.[32] ZNRF3 also plays a major role in the regulation of the Wnt signaling cascade, which can modulate a variety of cell processes related to oncogenesis and cell differentiation.[33]−[36] […] Because it has an extracellular domain that can be easily accessible to macrocyclic peptides, we envisioned that a selection against the extracellular domain for ZNRF3 (ZNRF3-ECD) would afford peptides that could potentially be used in the development of proteolysis-targeting chimeras (PROTACs) for a variety of membrane proteins. We expressed and characterized a biotinylated ZNRF3-ECD using an Avi-Tag on the […] to facilitate the selection using streptavidin magnetic beads, as has been previously described (Figure S20).[38] […] To avoid the potential for enriching peptides that bind to the streptavidin resin, we alternated loading the protein using streptavidin and NHS-functionalized magnetic beads for the first three rounds of selection (Figure 5).
The purified phage library (10^11 to 10^12 cfu) in binding buffer was incubated with 1 mM TCEP at 37 °C. After 30 min, the linker (pCAmCP or mCAmCP, 10 mM in DMSO) was added to a final concentration of 100 μM. The solution was incubated for 24 h at RT with slow rotation. The library was then directly used for affinity selection without further purification.
Streptavidin-coated magnetic beads (100 μL, 50% slurry, Cytiva Sera-Mag) were transferred to a 1.5 mL tube, washed three times with 1 mL of binding buffer (10 mM HEPES, 150 mM NaCl, 10 mM MgCl2, and 1 mM KCl, pH 7.4), resuspended in 100 μL of binding buffer, and split into two tubes. […]

[3] = 10 mM HEPES, 150 mM NaCl, 0.01% Tween 20, pH 7.5, 0.8% DMF
[4] = 10 mM HEPES, 150 mM NaCl, 0.01% Tween 20, pH 7.5, 0.8% DMF, 1:1 binding model, mean ± s.d., n = 3

Compound	binding to ZNRF3 (in words) [1, 3]	reactivity with / cyclization of CA5C-sfGFP (in words) (CA5C-sfGFP)	Kd [1, 4] [µM]	further results
CHLSPLEAWRQKLC (also: sidechain bridge or staple (positions not given here)) [Peptide Z27S1-mCP, Z27S1 cyclized with mCAmCP]	No significant dose-dependent interactions were observed; also recorded: no significant binding to ZNRF3	–	–	–
C=CC(=O)Nc1ccnc(C#N)n1 [mAcCP]	–	did not result in the expected CA5C-sfGFP cyclization	–	–
CC[C@H](C)[C@@H]1NC(=O)[C@H](Cc2ccccc2)NC(=O)[C@H](CCC(N)=O)NC(=O)[C@H](C)NC(=O)[C@H](C)NC(=O)[C@H](CC(N)=O)NC(=O)[C@@H]2CCCN2C(=O)[C@@H]2CSC(=N2)c2ncc(cn2)NC(=O)CSC[C@@H](C(N)=O)NC(=O)[C@H](C)NC(=O)[C@H](CCCNC(=N)N)NC(=O)[C@H](CO)NC(=O)[C@H](Cc2ccc(O)cc2)NC(=O)[C@H](CCCNC(=N)N)NC1=O [Peptide Z27S3] ({CH2CO}-[X1]PNAAQFIRYSRAC-NH2; thioether N-14)	–	–	3.5 ± 0.3	–
C=CC(=O)Nc1cnc(C#N)nc1 [pAcCP]	–	did not result in the expected CA5C-sfGFP cyclization	–	–
CC(C)C[C@@H]1NC(=O)[C@H](CCCCN)NC(=O)[C@H](CCC(N)=O)NC(=O)[C@H](CCCNC(=N)N)NC(=O)[C@H](Cc2c[nH]c3ccccc23)NC(=O)[C@H](C)NC(=O)[C@H](CCC(=O)O)NC(=O)[C@H](CC(C)C)NC(=O)[C@@H]2CCCN2C(=O)[C@H](CO)NC(=O)[C@H](CC(C)C)NC(=O)[C@H](Cc2c[nH]cn2)NC(=O)[C@@H](N)CSSC[C@@H](C(N)=O)NC1=O [Peptide Z27S1Disulf] (H-CHLSPLEAWRQKLC-NH2; disulfide 1-14)	–	–	3 ± 2	–
CC(C)C[C@@H]1NC(=O)[C@H](CCCCN)NC(=O)[C@H](CCC(N)=O)NC(=O)[C@H](CCCNC(=N)N)NC(=O)[C@H](Cc2c[nH]c3ccccc23)NC(=O)[C@H](C)NC(=O)[C@H](CCC(=O)O)NC(=O)[C@H](CC(C)C)NC(=O)[C@@H]2CCCN2C(=O)[C@H](CO)NC(=O)[C@H](CC(C)C)NC(=O)[C@H](Cc2c[nH]cn2)NC(=O)[C@@H]2CSC(=N2)c2ncc(cn2)NC(=O)CSC[C@@H](C(N)=O)NC1=O [Peptide Z27S1] ({CH2CO}-[X1]HLSPLEAWRQKLC-NH2; thioether N-14)	nanomolar affinity to ZNRF3	–	–	fold increase in abundance after round 2 ([2]; enrichment after round 2): > 16,000 -fold; presence in round 1 sequencing data (in words) ([2]; round 1): not found in the round 1 sequencing data; share of total sequences in round 4 ([2]; round 4, 69,462 total sequences): 67%; Kd ([1]; pH 7.5, 1:1 binding model, value as given in abstract): 0.36 µM
CC[C@H](C)[C@@H]1NC(=O)[C@H](Cc2ccccc2)NC(=O)[C@H](CCC(N)=O)NC(=O)[C@H](C)NC(=O)[C@H](C)NC(=O)[C@H](CC(N)=O)NC(=O)[C@@H]2CCCN2C(=O)[C@@H](N)CSSC[C@@H](C(N)=O)NC(=O)[C@H](C)NC(=O)[C@H](CCCNC(=N)N)NC(=O)[C@H](CO)NC(=O)[C@H](Cc2ccc(O)cc2)NC(=O)[C@H](CCCNC(=N)N)NC1=O [Peptide Z27S3Disulf] (H-CPNAAQFIRYSRAC-NH2; disulfide 1-14)	–	–	4 ± 1	–
C=CC(=O)Nc1cnc(C#N)cn1 [pAcCPy]	–	essentially no reactivity with the protein	–	–
[Abu]PNAAQFIRYSRA[Abu] [Peptide Z27S3Abu, Abu derivative of Z27S3]	no binding to ZNRF3	–	–	–
